Experimental data published in US10000380B2, “Method for the manufacture of polymeric sulfur” (EASTMAN CHEMICAL COMPANY, priority 2016, dated 2018).

Assay: Solubility of cyclooctasulfur, cyclododecasulfur and crystalline polymeric sulfur in carbon disulfide, chlorobenzene and para-xylene (supernatant sulfur content by Uniquant)
Type: physicochemical
Protocol: Samples were also analyzed using X-ray fluorescence and the UniQuant software package. UniQuant (UQ) is an x-ray fluorescence (XRF) analysis tool that affords standardless XRF analysis of samples. Samples can then be semi-quantitatively analyzed for up to 72 elements beginning with row three in the periodic table (i.e. Na to higher Z). The data are mathematically corrected for matrix differences between calibration standards and samples as well as absorption and enhancement effects; i.e. inter-element effects. Some factors that can affect the quality of results include granularity in the sample (leading to shadow effects), mineralogical effects (due to sample inhomogeneity), insufficient sample size, and lack of knowledge of the sample matrix. In cases where a sample was amenable to both, the XRF UQ analysis and the ICP-OES (i.e. quantitative) analysis generally agree within +/−10%. Samples were analyzed for Zn, Br, Cl, and S content by UQ.
Fifty grams of p-xylene was added to each of three identical 100-milliliter jacketed glass vessels fitted with a circulating heating bath, cooling water condenser, magnetic stir bar and stir plate, and nitrogen purge. All vessels were heated to the desired temperature, and cyclooctasulfur, cyclododecasulfur (prepared as in Example 2), and unoiled commercial crystalline polymeric sulfur (Crystex™) was added in sufficient quantities to each of the glass vessels to allow undissolved solids to remain after dissolution and equilibration of the mixture. The equilibration period typically lasted 2 to 8 hours, during which the contents of the vessel were maintained at the desired temperature and stirred continuously. Upon equilibration, supernatant liquid was withdrawn from the vessels via a heated fritted glass pipette (heated to the same temperature as the solution). The supernatants were analyzed by Uniquant to determine sulfur content, indicating the solubility of the sulfur species at the vessel temperature. Similar experiments were conducted for carbon disulfide and chlorobenzene for each of the three solutes.

Compound | Solubility relative to polymeric sulfur (in p-xylene, chlorobenzene and CS2) | Solubility in weight % of solute in solvent (solvent CS2, 22 °C) [wt %] | Solubility in weight % of solute in solvent (solvent CS2, 45 °C) [wt %] | Solubility in weight % of solute in solvent (solvent chlorobenzene, 45 °C) [wt %] | Solubility in weight % of solute in solvent (solvent chlorobenzene, 115 °C) [wt %] | Solubility in weight % of solute in solvent (solvent p-xylene, 45 °C) [wt %] | Solubility in weight % of solute in solvent (solvent p-xylene, 115 °C) [wt %] | Solubility relative to cyclododecasulfur (in p-xylene, chlorobenzene and CS2, depending on temperature) [times] | Solubility in weight % of solute in solvent (solvent chlorobenzene, 22 °C) [wt %] | Solubility in weight % of solute in solvent (solvent p-xylene, 22 °C) [wt %]
S1SSSSSSSSSSS1 [Cyclododecasulfur, cyclododecasulfur] | at least an order of magnitude more soluble | 0.2 | 0.5 | 0.015 | 0.44 | <0.05 | 0.4 | – | – | –
S1SSSSSSS1 [Cyclooctasulfur, cyclooctasulfur] | – | 32 | 48 | 6.2 | 21.7 | 5.6 | 18.7 | 30 to 200 | 2.4 | 2.3
